The text below walks through data of patent US20020076693A1, “Novel cell surface receptor for HIV retroviruses, therapeutic and diagnostic uses” (priority 1997, published 2002).

A short description of data set [1]: Stability of TASP constructs in serum (residual activity to bind the cell-surface ligand). The data set is classed as in vitro ADME.
The subject of data set [2] is V3 loop-BPs (nucleolin, PHAP II, PHAP I). Nature of the data set: BIAcore biosensor binding to immobilized V3 loop-BPs. Further details: species or system human.
The subject of data set [3] is HIV-1 Bal. Kind of data set: HIV entry into HeLa P4-C5 cells (β-galactosidase), HIV-1 Ba-L. The data set is classed as cell-based. The note with it: HeLa P4-C5, HIV-1 Bal; read-out: IC50, inhibition of HIV entry.
The next data set has as its system SIVmac. Kind of data set: SIVmac entry into HeLa cells (β-galactosidase). The following applies: β-galactosidase at 48 hours. The data set is classed as cell-based, SIV.
The next data set has as its system CD4^+ CEM cells. Kind of data set: Binding of 125I-labeled gp120 to CEM cells. Further details: species or system human. Here is the method: A. The binding of ^125I-labeled gp120 to CEM cells. […] The cells were then washed as described in “Materials and Methods” and processed for analysis of the bound gp120.
Recombinant gp120 (Neosystem, Strasbourg, France) was radioiodinated with the Bolton-Hunter reagent (New England Nuclear-Du Pont, Boston, Mass.) according to the technique described by the manufacturer. To study the binding of gp120 to the CD4 receptor, CEM cells (5×10^6) which express high levels of CD4 were incubated in the culture medium with ^125I-labeled gp120 (50 ng; 10 Ci/mg) at 37° C. for 1 hour. Cells were then washed twice in PBS (5 ml) and cytoplasmic extracts were prepared by disruption of cell pellets in buffer E ([…]). Aliquots ([…]; corresponding to material from 10^6 cells) were diluted in two-fold concentrated electrophoresis buffer and were analyzed by SDS/PAGE. […] The ^125I-labeled gp120 band was also quantitated in a Phosphorimager (Molecular Dynamics, Sunnyvale, Calif.).

Another data set concerns HIV-1 Lai. Nature of the data set: Binding of HIV particles to CEM cells (cell-associated p24). It is filed as cell-based. The note with it: 37° C., 1 hour; TASP 10 mM, mAb OKT4A 10 μg/ml, mAb anti-CD4 5 μg/ml, rabbit antibodies 100 μg/ml. The procedure: B. The binding of HIV particles to CEM cells. […] The binding of HIV particles was estimated as described in “Materials and Methods”. The ordinate gives the concentration of p24 associated with the cells, i.e. particles bound on the cell surface as well as particles (or cores) entered into cells. Each value represents the mean of two identical samples. Similar results were obtained in two other indepenent experiments.
CEM cells (5×10^6) were first preincubated (15 min, 37° C.) in the absence (Control) or presence of mAb anti-CD4 CB-T4 (5 μg/ml; histogram a-CD4), rabbit peptide purified antibodies against nucleolin, PHAP II and PHAP I at 100 μg/ml, or combination of antibodies as shown (at the same concentrations as when used alone) before the addition of HIV-1 Lai (material corresponding to 5 ng of p24), and further incubation at 37° C. for 1 hr. The cells were then washed and cell extracts were prepared to estimate the amount of HIV binding to cells (HIV bound on the surface+HIV entered into cells). The amount of virus particles was estimated by measuring the concentration of p24. The experimental conditions were as described previously (Krust et al., 1993; Callebaut et al., 1997b).
After incubation at 37° C. for 1 hour with gentle shaking, cells were diluted 10 fold in the culture medium and pelleted by centrifugation. […]

Data set [4] deals with HIV-1 Bal. Kind of data set: Infection of human monocyte-derived macrophages by HIV-1 (p24). The data set is classed as cell-based. The following applies: HIV-1 BaL (TASP also Ada); p24 in supernatant. The procedure: Macrophages are infected with BaL or Ada HIV-1 viruses, in the presence of 2 μM, 1 μM or 0.1 μM of 5[Kψ (CH2N)PR]-TASP. Cells are preincubated during 30 min at 4° C. in the presence of 5[Kψ (CH2N)PR]-TASP before adding the virus. Every 3 days interval, the whole culture supernatant is collected and is replaced by RPMI 1640 culture medium supplemented with 20% fetal calf serum (FCS), 1% antibiotics, 1% glutamine, in addition to 5[Kψ (CH2N)PR]-TASP that is kept present in the culture medium until day 14 after in vitro infection. Virus production is quantitated by titration of p24 protein in the culture supernatant at different times (days) after in vitro infection. Each value represented in the graphs represents the mean of two test samples.
Macrophages are infected by the BaL VIH-1 virus in the presence of 100 μg/ml of anti-P95, anti-P40 and anti-P30 antibody. Cells are preincubated during 30 min at 4° C. in the presence of each kind of antibody before adding the virus. The antibodies are kept present in the culture medium during the whole infection period of time. […]
Cells are preincubated during 30 min at 4° C. in the presence of the different molecules either alone or in association before adding the virus. […] Virus production is quantitated by titration of p24 protein in the culture supernatant at different times (days) after in vitro infection. […]

The target in the next data set is P30/PHAPI (Homo sapiens, UniProt P39687). Nature of the data set: Saturation of binding sites of P30/PHAPI.
Chain of P30/PHAPI (P39687 whole entry): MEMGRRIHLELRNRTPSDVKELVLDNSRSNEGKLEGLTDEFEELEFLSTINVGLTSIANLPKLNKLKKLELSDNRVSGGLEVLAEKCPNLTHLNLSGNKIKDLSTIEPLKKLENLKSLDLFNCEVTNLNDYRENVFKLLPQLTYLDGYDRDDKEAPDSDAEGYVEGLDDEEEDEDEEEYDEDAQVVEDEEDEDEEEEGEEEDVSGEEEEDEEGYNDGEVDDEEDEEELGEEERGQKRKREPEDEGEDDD
[5] abbreviates: binding protein(s) V3 loop-BPs, BIAcore.

Entries after “also recorded” stand apart in the source; their conditions may differ.

For orientation: IC50 means the point on the concentration scale where inhibition reaches its midpoint. As to 5[Kψ(CH2N)PR]-TASP, in data set [1], the “activity retained after 18 hours of incubation in serum” value is “more than 80%” and the “inactivated after 18 hours of incubation in sera” value is reported as “less than 20%”. Moreover, in data set [2] (setting [5]), the “Ka (equilibrium affinity constant)” value worked out at 9.61e+09 M⁻¹, the “ka (association rate constant)” value was 37.50 × 10^5 M^−1S^−1 and the “kd (dissociation rate constant)” value was 0.39 × 10^−3 S^−1. For the same substance, in data set [2] (binding to the V3 loop-BPs), the “equilibrium affinity constant Ka” value came out at 9.6e+09 M⁻¹. For the same substance, the 50% inhibitory concentration (IC50) with HIV-1 Bal [3] stood at 0.3 µM. Moreover, the “effect on SIVmac entry” value in the data set on SIVmac is “only a slight effect; also recorded: no significant effect”. Besides, the “binding of 125I-labeled gp120 to CEM cells” value in the data set on CD4^+ CEM cells (20 mM of TASP) is “not affected”. Besides, the “binding of 125I-labeled gp120 to CEM cells” value in the data set with CD4^+ CEM cells (higher concentrations of TASP (40, 80 μM)) was “slight inhibition”. In addition, in the data set with HIV-1 Lai, the “inhibition of binding of HIV particles to CEM cells” value came out at 78%. Further, the “effect on infection of human macrophages by HIV-1” value with HIV-1 Bal [4] was “inhibits, in a dose-dependent manner”. In addition, the “concentration for 100% saturation of the binding sites” value on P30/PHAPI was 8 µM.
